# Laboratory results taken from article PMC5988656, “Phase I studies of AZD1208, a proviral integration Moloney virus kinase inhibitor in solid and haematological cancers” (British Journal of Cancer, 2018).
# Experiments:
# [1] = test system: p4E-BP1 S65; experiment: PD: phosphorylation of 4E-BP1 at S65 by NanoPro immunoassay, AML study; format: in vivo, human
# Method: For AZD1208 PD evaluations, bone marrow aspirates were collected (pretreatment and Cycle 1, Day 1, 2–6 h following administration of AZD1208) and peripheral blood samples were collected (pretreatment on Cycle 1, Day 1; and on-treatment at Cycle 1, Day 1 at 3, 6 and 24 h post-dose; Cycle 1, Day 14 at pre-dose, 3 and 6 h post-dose). Mononuclear cells were isolated, and protein lysates prepared, for subsequent analysis of phosphorylated BAD at S112 by MesoScale Discovery ELISA and phosphorylation of 4E-BP1 at S65 by NanoPro immunoassay [unpublished data: McEachern et al. 2018, manuscript in preparation]. Samples were considered evaluable when the baseline biomarker levels were above the background signal (as defined by buffer-only negative control samples) and within the linear range of assay. Additionally, only blood samples containing detectable blasts were considered for analysis.
# [2] = Solid tumour dose-escalation study: pharmacokinetics (plasma, urine); format: in vivo, human
# Method: The schedules for collection of blood and urine samples for PK analyses in each cohort in both studies are described in Supplementary Table 1. When necessary for clinical response assessment in the AML study, a bone marrow sample for PK analysis was collected at Cycle 1, Day 28.
# The concentration of AZD1208 in plasma and urine was determined by Covance, on behalf of Clinical Bioanalysis Alliance at AstraZeneca R&D, using a bioanalytical method. A volume of 0.05 ml of K2EDTA human plasma sample was extracted by liquid–liquid extraction using 0.7 ml of methyl tert-butyl ether. Approximately 100 µl of the supernatant was transferred, evaporated to dryness and reconstituted with 350 µl of 1:1 methanol:water, and a 5 µl injection was made to the high-performance liquid chromatography (HPLC) column. HPLC separations were performed on a Phenomenex LUNA C18 (50 × 2 mm, 5 µm) column using a mobile phase of 0.1% formic acid in water (A) and 0.1% formic acid in acetonitrile (B) at a flow rate of 0.6 ml/min and a column temperature of 40 °C. AZD1208-D5 was used as the internal standard. Detection was performed in a Sciex API4000 mass spectrometer, in a positive electrospray ionisation mode, using multiple reaction monitoring detection (AZD1208: 380.0–>248.1; AZD1208-D5: 385.0–>253.1).
smiles,measurement,setting,value
N[C@@H]1CCCN(c2c(/C=C3\SC(=O)NC3=O)cccc2-c2ccccc2)C1 [AZD1208],Patients with reductions in p4E-BP1 S65,"[1]; evaluable bone marrow samples, single dose",3/11
same,Patients with decreases in p4E-BP1 S65,[1]; peripheral blood samples,4/7
same,"Plasma concentration of AZD1208, Gmean","[2]; Cycle 0, Day 1, 1 h post-dose, 120 mg",n=3 156.2 ng ml
same,"Plasma concentration of AZD1208, Gmean","[2]; Cycle 0, Day 1, 1 h post-dose, 240 mg",n=7 668.4 ng ml
same,"Plasma concentration of AZD1208, Gmean","[2]; Cycle 0, Day 1, 1 h post-dose, 360 mg",n=5 1424 ng ml
same,"Plasma concentration of AZD1208, Gmean","[2]; Cycle 0, Day 1, 1 h post-dose, 540 mg",n=7 1053 ng ml
same,"Plasma concentration of AZD1208, Gmean","[2]; Cycle 0, Day 1, 1 h post-dose, 700 mg",n=6 691.7 ng ml
same,"Plasma concentration of AZD1208, Gmean","[2]; Cycle 0, Day 1, 1 h post-dose, 800 mg",n=6 925.6 ng ml
same,"Plasma concentration of AZD1208, Gmean","[2]; Cycle 0, Day 1, 1.5 h post-dose, 120 mg",n=3 696.5 ng ml
same,"Plasma concentration of AZD1208, Gmean","[2]; Cycle 0, Day 1, 1.5 h post-dose, 240 mg",n=7 1317 ng ml
same,"Plasma concentration of AZD1208, Gmean","[2]; Cycle 0, Day 1, 1.5 h post-dose, 360 mg",n=5 2509 ng ml
same,"Plasma concentration of AZD1208, Gmean","[2]; Cycle 0, Day 1, 1.5 h post-dose, 540 mg",n=7 2747 ng ml
same,"Plasma concentration of AZD1208, Gmean","[2]; Cycle 0, Day 1, 2 h post-dose, 120 mg",n=3 1064 ng ml
same,"Plasma concentration of AZD1208, Gmean","[2]; Cycle 0, Day 1, 2 h post-dose, 240 mg",n=7 1906 ng ml
same,"Plasma concentration of AZD1208, Gmean","[2]; Cycle 0, Day 1, 2 h post-dose, 360 mg",n=6 3412 ng ml
same,"Plasma concentration of AZD1208, Gmean","[2]; Cycle 0, Day 1, 2 h post-dose, 540 mg",n=7 4049 ng ml
same,"Plasma concentration of AZD1208, Gmean","[2]; Cycle 0, Day 1, 2 h post-dose, 700 mg",n=6 3514 ng ml
same,"Plasma concentration of AZD1208, Gmean","[2]; Cycle 0, Day 1, 2 h post-dose, 800 mg",n=6 2929 ng ml
same,"Plasma concentration of AZD1208, Gmean","[2]; Cycle 0, Day 1, 4 h post-dose, 120 mg",n=3 720.6 ng ml
same,"Plasma concentration of AZD1208, Gmean","[2]; Cycle 0, Day 1, 4 h post-dose, 240 mg",n=6 1531 ng ml
same,"Plasma concentration of AZD1208, Gmean","[2]; Cycle 0, Day 1, 4 h post-dose, 360 mg",n=6 3157 ng ml
same,"Plasma concentration of AZD1208, Gmean","[2]; Cycle 0, Day 1, 4 h post-dose, 540 mg",n=7 3160 ng ml
same,"Plasma concentration of AZD1208, Gmean","[2]; Cycle 0, Day 1, 4 h post-dose, 700 mg",n=6 4581 ng ml
same,"Plasma concentration of AZD1208, Gmean","[2]; Cycle 0, Day 1, 4 h post-dose, 800 mg",n=6 3844 ng ml
same,"Plasma concentration of AZD1208, Gmean","[2]; Cycle 0, Day 1, 6 h post-dose, 120 mg",n=3 681 ng ml
same,"Plasma concentration of AZD1208, Gmean","[2]; Cycle 0, Day 1, 6 h post-dose, 240 mg",n=7 1408 ng ml
same,"Plasma concentration of AZD1208, Gmean","[2]; Cycle 0, Day 1, 6 h post-dose, 360 mg",n=6 2501 ng ml
same,"Plasma concentration of AZD1208, Gmean","[2]; Cycle 0, Day 1, 6 h post-dose, 540 mg",n=7 3190 ng ml
same,"Plasma concentration of AZD1208, Gmean","[2]; Cycle 0, Day 1, 6 h post-dose, 700 mg",n=6 5091 ng ml
same,"Plasma concentration of AZD1208, Gmean","[2]; Cycle 0, Day 1, 6 h post-dose, 800 mg",n=6 2677 ng ml
same,"Plasma concentration of AZD1208, Gmean","[2]; Cycle 0, Day 1, 8 h post-dose, 120 mg",n=3 597.8 ng ml
same,"Plasma concentration of AZD1208, Gmean","[2]; Cycle 0, Day 1, 8 h post-dose, 240 mg",n=7 1456 ng ml
same,"Plasma concentration of AZD1208, Gmean","[2]; Cycle 0, Day 1, 8 h post-dose, 360 mg",n=6 2196 ng ml
same,"Plasma concentration of AZD1208, Gmean","[2]; Cycle 0, Day 1, 8 h post-dose, 540 mg",n=7 2957 ng ml
same,"Plasma concentration of AZD1208, Gmean","[2]; Cycle 0, Day 1, 8 h post-dose, 700 mg",n=6 4256 ng ml
same,"Plasma concentration of AZD1208, Gmean","[2]; Cycle 0, Day 1, 8 h post-dose, 800 mg",n=6 3463 ng ml
same,"Plasma concentration of AZD1208, Gmean","[2]; Cycle 0, Day 1, 24 h post-dose, 120 mg",n=3 459.4 ng ml
same,"Plasma concentration of AZD1208, Gmean","[2]; Cycle 0, Day 1, 24 h post-dose, 240 mg",n=7 1157 ng ml
same,"Plasma concentration of AZD1208, Gmean","[2]; Cycle 0, Day 1, 24 h post-dose, 360 mg",n=6 1649 ng ml
same,"Plasma concentration of AZD1208, Gmean","[2]; Cycle 0, Day 1, 24 h post-dose, 540 mg",n=7 2111 ng ml
same,"Plasma concentration of AZD1208, Gmean","[2]; Cycle 0, Day 1, 24 h post-dose, 700 mg",n=6 2957 ng ml
same,"Plasma concentration of AZD1208, Gmean","[2]; Cycle 0, Day 1, 24 h post-dose, 800 mg",n=6 2466 ng ml
same,"Plasma concentration of AZD1208, Gmean","[2]; Cycle 0, Day 1, 48 h post-dose, 120 mg",n=3 308.4 ng ml
same,"Plasma concentration of AZD1208, Gmean","[2]; Cycle 0, Day 1, 48 h post-dose, 240 mg",n=7 773.2 ng ml
same,"Plasma concentration of AZD1208, Gmean","[2]; Cycle 0, Day 1, 48 h post-dose, 360 mg",n=6 1361 ng ml
same,"Plasma concentration of AZD1208, Gmean","[2]; Cycle 0, Day 1, 48 h post-dose, 540 mg",n=7 1168 ng ml
same,"Plasma concentration of AZD1208, Gmean","[2]; Cycle 0, Day 1, 48 h post-dose, 700 mg",n=6 1717 ng ml
same,"Plasma concentration of AZD1208, Gmean","[2]; Cycle 0, Day 1, 48 h post-dose, 800 mg",n=6 1377 ng ml
same,"Plasma concentration of AZD1208, Gmean","[2]; Cycle 0, Day 1, 72 h post-dose, 120 mg",n=3 221.4 ng ml
same,"Plasma concentration of AZD1208, Gmean","[2]; Cycle 0, Day 1, 72 h post-dose, 240 mg",n=7 501.1 ng ml
same,"Plasma concentration of AZD1208, Gmean","[2]; Cycle 0, Day 1, 72 h post-dose, 360 mg",n=6 912.2 ng ml
same,"Plasma concentration of AZD1208, Gmean","[2]; Cycle 0, Day 1, 72 h post-dose, 540 mg",n=7 710.8 ng ml
same,"Plasma concentration of AZD1208, Gmean","[2]; Cycle 0, Day 1, 72 h post-dose, 700 mg",n=6 1141 ng ml
same,"Plasma concentration of AZD1208, Gmean","[2]; Cycle 0, Day 1, 72 h post-dose, 800 mg",n=6 798.7 ng ml
same,"Plasma concentration of AZD1208, Gmean","[2]; Cycle 1, Day 15, 0.25 h post-dose, 120 mg",n=3 963.7 ng ml
same,"Plasma concentration of AZD1208, Gmean","[2]; Cycle 1, Day 15, 0.25 h post-dose, 240 mg",n=6 606.8 ng ml
